Assay results taken from ChEMBL document CHEMBL1201862, “PubChem BioAssay data set” (2004).
Calls of active or inactive are those of the source.

Columns and labels:
Major prion protein = Major prion protein (Homo sapiens, UniProt P04156); format: functional, cell-based
cells [1] = test: cells
Mu-type opioid receptor = Mu-type opioid receptor (Homo sapiens, UniProt P35372); test: (§1) Counterscreen for agonists of heterodimerization of the mu 1 (OPRM1) and delta 1 (OPRD1) opioid receptors: Luminescence-based cell-based high throughput dose response assay to identify agonists of OPRM1 homodimerization.; format: functional
[2] = target: T1, Short transient receptor potential channel 4 (Mus musculus, UniProt Q9QUQ5); test: mouse TRPC4 channel activators, dose response, cell-based, HEK293 TRPC4/mu-opioid, Fluo-4 calcium (AID 434937); format: functional
T1 sequence (Q9QUQ5 whole entry): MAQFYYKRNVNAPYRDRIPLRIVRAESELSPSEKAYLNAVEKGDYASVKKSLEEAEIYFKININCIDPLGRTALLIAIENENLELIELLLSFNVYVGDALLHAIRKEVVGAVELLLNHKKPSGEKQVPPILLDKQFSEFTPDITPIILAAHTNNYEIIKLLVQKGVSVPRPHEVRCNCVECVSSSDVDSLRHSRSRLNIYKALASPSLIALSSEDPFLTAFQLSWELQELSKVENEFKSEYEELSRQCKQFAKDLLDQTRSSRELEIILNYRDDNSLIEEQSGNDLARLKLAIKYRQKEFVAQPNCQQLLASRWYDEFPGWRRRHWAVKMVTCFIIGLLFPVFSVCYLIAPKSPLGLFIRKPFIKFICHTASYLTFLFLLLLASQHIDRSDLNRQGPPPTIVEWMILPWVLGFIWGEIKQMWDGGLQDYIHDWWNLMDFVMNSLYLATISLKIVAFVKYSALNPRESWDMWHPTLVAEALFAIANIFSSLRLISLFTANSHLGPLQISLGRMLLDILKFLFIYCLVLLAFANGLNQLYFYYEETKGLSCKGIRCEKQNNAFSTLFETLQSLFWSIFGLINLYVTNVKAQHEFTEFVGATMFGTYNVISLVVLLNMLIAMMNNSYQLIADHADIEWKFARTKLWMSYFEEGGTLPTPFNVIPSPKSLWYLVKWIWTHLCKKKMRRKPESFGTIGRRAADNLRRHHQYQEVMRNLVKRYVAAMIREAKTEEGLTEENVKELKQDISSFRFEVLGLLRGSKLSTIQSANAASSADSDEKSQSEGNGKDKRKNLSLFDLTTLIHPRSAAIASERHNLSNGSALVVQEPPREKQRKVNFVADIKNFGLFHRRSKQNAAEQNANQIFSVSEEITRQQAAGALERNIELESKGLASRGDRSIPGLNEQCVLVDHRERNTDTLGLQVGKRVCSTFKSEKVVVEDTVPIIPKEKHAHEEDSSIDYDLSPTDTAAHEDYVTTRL

[3] = target: 5-hydroxytryptamine receptor 5A (Homo sapiens, UniProt P47898); test: Counterscreen for agonists of OPRM1-OPRD1 heterodimerization: luminescence-based cell-based high throughput dose response assay to identify agonists of 5-hydroxytryptamine (serotonin) 5A receptor (HTR5A). [Related pubchem assays (depositor defined):AID504326, AID504355, AID504692, AID504904, AID504905]; format: functional
[4] = target: Delta-type opioid receptor (Homo sapiens, UniProt P41143); test: as §1, with “of OPRD1” for “of OPRM1”, “homodimerization. [Related pubchem assays (depositor defined):AID504326, AID504355, AID504692, AID504904, AID504905]” for “homodimerization.”; format: functional
Paired box protein Pax-8 = Paired box protein Pax-8 (Homo sapiens, UniProt Q06710); test: inhibitors of PAX8-driven TPO luciferase reporter, dose response, RMG-I cells, cherry-pick (AID 687027); format: functional, cell-based;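 further: luciferase reporter driven by Pax8 target thyroperoxidase promoter measured by SteadyGlo luminescence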
[5] = cytotoxicity in OVCAR8 ovarian cancer cells, dose response, PAX8 project, cell-based, plate reader, dry powder samples (AID 743197); format: functional; details: OVCAR-8
[6] = NIH:OVCAR-3 ovarian cancer cell cytotoxicity, dose response, PAX8 inhibitor project, plate reader, dry powder samples (AID 743044); format: functional, cell-based
[7] = target: T2, Endoribonuclease toxin MazF (Escherichia coli K-12, UniProt P0AE70); test: MazF toxin RNase activators, dose response, biochemical, fluorescence, single-stranded RNA substrate, uHTS hits (AID 588481); format: functional
T2 sequence (P0AE70 whole entry): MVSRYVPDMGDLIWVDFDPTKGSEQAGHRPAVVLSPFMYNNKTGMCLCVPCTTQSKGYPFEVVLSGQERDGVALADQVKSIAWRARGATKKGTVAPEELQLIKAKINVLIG

Galanin receptor type 3 = target: T3, Galanin receptor type 3 (Homo sapiens, UniProt O60755); test: Fluorescence-based cell-based primary high throughput dose response assay to identify antagonists of the Galanin Receptor 3 (GalR3).; format: functional
T3 sequence (O60755 whole entry): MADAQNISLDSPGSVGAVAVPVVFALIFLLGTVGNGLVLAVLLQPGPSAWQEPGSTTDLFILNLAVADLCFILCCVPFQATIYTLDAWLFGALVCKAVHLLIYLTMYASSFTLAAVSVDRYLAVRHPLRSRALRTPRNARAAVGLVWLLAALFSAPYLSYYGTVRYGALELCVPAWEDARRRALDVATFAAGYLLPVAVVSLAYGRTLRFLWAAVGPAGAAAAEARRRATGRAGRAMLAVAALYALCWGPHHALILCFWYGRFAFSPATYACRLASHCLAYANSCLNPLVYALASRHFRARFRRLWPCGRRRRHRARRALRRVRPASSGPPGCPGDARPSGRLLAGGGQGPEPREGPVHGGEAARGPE

cells [8] = format: functional, cell-based; details: HEK-CNG
[9] = target: T4, Type-1 angiotensin II receptor (Homo sapiens, UniProt P30556); test: AT1 receptor antagonists, dose response, selectivity assay for APJ receptor antagonist project, cell-based, uHTS hits (AID 463214); format: functional;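 further: antagonist potency against angiotensin II stimulated AT1 response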
T4 sequence (P30556 whole entry): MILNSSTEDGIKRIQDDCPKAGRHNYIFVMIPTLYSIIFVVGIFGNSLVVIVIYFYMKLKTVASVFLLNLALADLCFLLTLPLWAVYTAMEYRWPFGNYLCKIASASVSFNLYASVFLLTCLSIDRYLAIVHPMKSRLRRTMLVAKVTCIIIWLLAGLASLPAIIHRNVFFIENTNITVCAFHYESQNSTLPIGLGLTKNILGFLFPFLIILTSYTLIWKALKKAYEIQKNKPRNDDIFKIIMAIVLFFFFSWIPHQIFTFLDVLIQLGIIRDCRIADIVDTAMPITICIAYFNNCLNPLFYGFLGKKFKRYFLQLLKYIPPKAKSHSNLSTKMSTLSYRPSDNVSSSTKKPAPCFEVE

Beta-galactosidase = Beta-galactosidase (Escherichia coli, UniProt Q8VNN2); test: PubChem AID 485352; format: functional
[10] = target: NAD-dependent protein deacylase sirtuin-5, mitochondrial (Homo sapiens, UniProt Q9NXA8); test: SIRT5 desuccinylase inhibitors, dose response, biochemical, fluorescence imaging, cherry-pick, set 5 (AID 720591);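 further: desuccinylation of succinyl peptide AMC substrate read as fluorescence after trypsin release; potency of inhibitors that lower fluorescence and may act on trypsin instead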
[11] = target: T5, Calpain-2 catalytic subunit (Sus scrofa, UniProt P43367); test: pig calpain II inhibitor potency, dose response, biochemical, fluorogenic peptide substrate (AID 1420); format: functional
T5 sequence (P43367 whole entry): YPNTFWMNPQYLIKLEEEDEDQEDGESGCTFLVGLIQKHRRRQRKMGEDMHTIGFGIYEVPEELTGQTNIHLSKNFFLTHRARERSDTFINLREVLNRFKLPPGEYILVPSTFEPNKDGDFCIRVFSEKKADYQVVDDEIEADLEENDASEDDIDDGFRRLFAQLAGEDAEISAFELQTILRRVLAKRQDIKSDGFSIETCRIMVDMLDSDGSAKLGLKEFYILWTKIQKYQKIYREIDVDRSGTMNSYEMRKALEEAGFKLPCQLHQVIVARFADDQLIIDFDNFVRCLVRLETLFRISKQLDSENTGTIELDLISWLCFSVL

[12] = microbe, parasite or virus in culture; format: functional; details: Mycobacterium tuberculosis

For `CCOC(=O)CSc1ccc2ccccc2n1`, the IC50 (Major prion protein) was 9.54 µM (active) and the IC50 (cells [1]) was > 138 µM (inactive).

With `Cc1ccc2c(C)c(C(=O)N(Cc3cccs3)C3CCS(=O)(=O)C3)oc2c1` (stereo not given) the EC50 (Mu-type opioid receptor) was > 92.5 µM (inactive), the EC50 [2] was 2.66 µM (active) and the EC50 [3] was > 92.5 µM (inactive). The EC50 [4] was 63.6 µM (inactive).

With `C[C@H](CO)N1C[C@H](C)[C@H](CN(C)S(=O)(=O)c2ccc(Cl)cc2)OCCCC[C@H](C)Oc2ccc(NS(=O)(=O)c3ccc(Cl)cc3)cc2C1=O` the AC50 (Paired box protein Pax-8) was 5.86 µM (active), the AC50 [5] was 58.9 µM (active) and the AC50 [6] was 34.3 µM (active).

For `CC1CC[C+]([N-]NS(=O)(=O)c2ccc([N+](=O)[O-])cc2)CC1`, the EC50 [7] was > 99 µM (inactive).

In the case of `CCOC(=O)Cc1csc(NC(=O)c2cc(=O)c3ccccc3o2)n1`, the IC50 (Galanin receptor type 3) is reported as 3.82 µM (active) and the EC50 (cells [8]) is reported as > 29.9 µM (inactive).

With `Cc1ccc(S(=O)(=O)N/N=C/c2ccc3nccnc3c2)cc1` the IC50 [9] was > 40 µM (not active) and the EC50 (Beta-galactosidase) was > 40 µM (inactive).

With `Cc1cc(Br)c(NC(=O)COC(=O)CC2CC3CCC2C3)c(Br)c1` (stereo not given) the AC50 [10] was 21.8 µM (active).

With `COC(=O)[C@@]12C[C@@H](CC(=O)NCc3ccccc3)C(=O)N(Cc3ccccc3)C1=CCC(C)(C)C2` the AC50 [10] was 19.1 µM (active).

With `CCCN(c1ccc(OCC)cc1)S(=O)(=O)c1ccc2c(c1)NC(=O)CO2` the IC50 (Major prion protein) was 13.1 µM (inactive) and the IC50 (cells [1]) was > 138 µM (inactive).

For `C=CCNC(=S)N/N=C/c1ccc(C(C)(C)C)cc1`, the IC50 [11] was 10.9 µM (not active).

In the case of `CCc1cc2cccc(C)c2nc1SCC(=O)NNC(=O)c1ccco1`, the IC50 (Major prion protein) is reported as 3.73 µM (active) and the IC50 (cells [1]) is reported as > 138 µM (inactive).

In the case of `COCCN(C(=O)C1CC(=O)N(Cc2ccccc2)C1)c1nc(-c2ccc([N+](=O)[O-])cc2)cs1` (stereo not given), the EC50 (Mu-type opioid receptor) is reported as 22.9 µM (inactive), the CC50 [12] is reported as > 40 µM (active) and the EC50 [3] is reported as > 92.5 µM (inactive). For the same compound, the EC50 [4] was > 92.5 µM (inactive).
